Results taken from ChEMBL document CHEMBL3991601, “The target landscape of clinical kinase drugs” (Science, 2017).
Calls of active or inactive are those of the source. Rule as the data show it, for most assays here: actives have a measured Kd and inactives only a lower limit.

Key:
Ephrin type-A receptor 5 = Ephrin type-A receptor 5 (Homo sapiens, UniProt P54756)
TGF-beta receptor type-1 = biological target: T1, TGF-beta receptor type-1 (Homo sapiens, UniProt P36897)
T1 sequence (P36897 whole entry): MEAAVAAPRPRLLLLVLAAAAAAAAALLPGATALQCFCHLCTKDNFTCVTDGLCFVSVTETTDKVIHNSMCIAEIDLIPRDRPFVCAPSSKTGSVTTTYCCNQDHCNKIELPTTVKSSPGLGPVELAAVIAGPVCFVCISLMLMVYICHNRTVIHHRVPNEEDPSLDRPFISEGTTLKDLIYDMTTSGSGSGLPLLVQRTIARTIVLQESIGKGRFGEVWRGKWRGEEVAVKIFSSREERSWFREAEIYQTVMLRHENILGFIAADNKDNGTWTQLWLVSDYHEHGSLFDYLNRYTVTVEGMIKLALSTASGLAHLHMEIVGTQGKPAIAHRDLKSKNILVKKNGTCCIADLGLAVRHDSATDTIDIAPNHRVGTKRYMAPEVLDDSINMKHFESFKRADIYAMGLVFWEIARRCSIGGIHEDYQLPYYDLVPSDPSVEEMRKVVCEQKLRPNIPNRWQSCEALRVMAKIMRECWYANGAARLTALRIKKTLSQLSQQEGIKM

[1] = biological target: Ribosomal protein S6 kinase alpha-1 (Homo sapiens, UniProt Q15418)
Ribosomal protein S6 kinase alpha-1, sequence (Q15418 whole entry): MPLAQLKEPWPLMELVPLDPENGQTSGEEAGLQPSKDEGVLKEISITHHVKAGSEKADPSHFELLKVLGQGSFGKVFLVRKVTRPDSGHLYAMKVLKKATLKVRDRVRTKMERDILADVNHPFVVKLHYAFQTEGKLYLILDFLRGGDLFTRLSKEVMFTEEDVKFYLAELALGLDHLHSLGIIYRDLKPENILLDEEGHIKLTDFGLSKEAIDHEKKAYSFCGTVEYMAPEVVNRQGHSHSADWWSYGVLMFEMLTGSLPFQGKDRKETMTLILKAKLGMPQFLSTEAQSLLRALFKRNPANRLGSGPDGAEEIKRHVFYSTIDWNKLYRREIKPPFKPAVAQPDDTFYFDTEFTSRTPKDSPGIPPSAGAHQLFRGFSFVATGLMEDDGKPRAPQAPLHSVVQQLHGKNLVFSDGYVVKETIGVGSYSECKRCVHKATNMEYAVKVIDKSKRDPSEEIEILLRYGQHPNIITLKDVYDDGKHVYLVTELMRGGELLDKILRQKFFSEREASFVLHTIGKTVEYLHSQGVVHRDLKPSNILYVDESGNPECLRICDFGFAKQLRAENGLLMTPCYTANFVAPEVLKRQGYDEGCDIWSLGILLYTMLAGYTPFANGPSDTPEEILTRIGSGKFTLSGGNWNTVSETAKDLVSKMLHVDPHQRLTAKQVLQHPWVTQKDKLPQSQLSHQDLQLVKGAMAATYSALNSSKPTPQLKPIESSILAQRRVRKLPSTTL

[2] = biological target: Mitogen-activated protein kinase kinase kinase kinase 1 (Homo sapiens, UniProt Q92918)
Mitogen-activated protein kinase kinase kinase kinase 1, sequence (Q92918 whole entry): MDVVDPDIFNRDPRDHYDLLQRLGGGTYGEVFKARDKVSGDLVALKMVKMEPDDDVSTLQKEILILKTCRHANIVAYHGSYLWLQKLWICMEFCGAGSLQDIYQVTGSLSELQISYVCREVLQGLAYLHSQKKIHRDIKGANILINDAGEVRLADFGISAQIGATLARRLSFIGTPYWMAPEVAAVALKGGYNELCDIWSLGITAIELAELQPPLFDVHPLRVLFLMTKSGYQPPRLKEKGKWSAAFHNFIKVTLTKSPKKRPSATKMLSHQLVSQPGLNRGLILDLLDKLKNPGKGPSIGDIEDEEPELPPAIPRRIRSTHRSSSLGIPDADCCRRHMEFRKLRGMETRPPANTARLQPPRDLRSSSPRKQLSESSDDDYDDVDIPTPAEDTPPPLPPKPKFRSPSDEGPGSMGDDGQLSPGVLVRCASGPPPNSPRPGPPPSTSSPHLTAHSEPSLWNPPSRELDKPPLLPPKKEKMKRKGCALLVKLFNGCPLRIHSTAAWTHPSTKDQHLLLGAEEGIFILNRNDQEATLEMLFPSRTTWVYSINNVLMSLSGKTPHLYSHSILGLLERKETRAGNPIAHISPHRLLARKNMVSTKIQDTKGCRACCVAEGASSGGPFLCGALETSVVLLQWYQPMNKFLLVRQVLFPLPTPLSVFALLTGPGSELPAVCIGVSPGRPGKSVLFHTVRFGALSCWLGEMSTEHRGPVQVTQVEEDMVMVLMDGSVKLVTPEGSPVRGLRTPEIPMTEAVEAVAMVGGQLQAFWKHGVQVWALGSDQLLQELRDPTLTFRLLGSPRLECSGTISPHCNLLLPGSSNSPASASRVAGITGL

[3] = biological target: T2, Tyrosine--tRNA ligase, cytoplasmic (Homo sapiens, UniProt P54577)
T2 sequence (P54577 whole entry): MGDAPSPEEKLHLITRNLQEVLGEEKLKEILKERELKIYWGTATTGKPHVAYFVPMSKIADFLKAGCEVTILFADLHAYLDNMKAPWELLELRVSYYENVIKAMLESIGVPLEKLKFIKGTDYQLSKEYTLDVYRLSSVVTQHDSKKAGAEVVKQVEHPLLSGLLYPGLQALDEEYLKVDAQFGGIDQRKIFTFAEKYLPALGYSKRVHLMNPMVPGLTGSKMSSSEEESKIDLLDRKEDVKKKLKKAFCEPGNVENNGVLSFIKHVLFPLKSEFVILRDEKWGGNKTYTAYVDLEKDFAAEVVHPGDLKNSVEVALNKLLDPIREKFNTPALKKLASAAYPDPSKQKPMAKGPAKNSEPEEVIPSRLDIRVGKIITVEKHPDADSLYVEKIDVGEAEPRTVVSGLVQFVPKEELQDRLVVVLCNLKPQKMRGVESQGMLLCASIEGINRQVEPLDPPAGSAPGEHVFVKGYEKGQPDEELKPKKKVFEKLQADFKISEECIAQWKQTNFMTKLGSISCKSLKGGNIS

[4] = biological target: Dual specificity tyrosine-phosphorylation-regulated kinase 1A (Homo sapiens, UniProt Q13627)
[5] = biological target: T3, Serine/threonine-protein kinase D2 (Homo sapiens, UniProt Q9BZL6)
T3 sequence (Q9BZL6 whole entry): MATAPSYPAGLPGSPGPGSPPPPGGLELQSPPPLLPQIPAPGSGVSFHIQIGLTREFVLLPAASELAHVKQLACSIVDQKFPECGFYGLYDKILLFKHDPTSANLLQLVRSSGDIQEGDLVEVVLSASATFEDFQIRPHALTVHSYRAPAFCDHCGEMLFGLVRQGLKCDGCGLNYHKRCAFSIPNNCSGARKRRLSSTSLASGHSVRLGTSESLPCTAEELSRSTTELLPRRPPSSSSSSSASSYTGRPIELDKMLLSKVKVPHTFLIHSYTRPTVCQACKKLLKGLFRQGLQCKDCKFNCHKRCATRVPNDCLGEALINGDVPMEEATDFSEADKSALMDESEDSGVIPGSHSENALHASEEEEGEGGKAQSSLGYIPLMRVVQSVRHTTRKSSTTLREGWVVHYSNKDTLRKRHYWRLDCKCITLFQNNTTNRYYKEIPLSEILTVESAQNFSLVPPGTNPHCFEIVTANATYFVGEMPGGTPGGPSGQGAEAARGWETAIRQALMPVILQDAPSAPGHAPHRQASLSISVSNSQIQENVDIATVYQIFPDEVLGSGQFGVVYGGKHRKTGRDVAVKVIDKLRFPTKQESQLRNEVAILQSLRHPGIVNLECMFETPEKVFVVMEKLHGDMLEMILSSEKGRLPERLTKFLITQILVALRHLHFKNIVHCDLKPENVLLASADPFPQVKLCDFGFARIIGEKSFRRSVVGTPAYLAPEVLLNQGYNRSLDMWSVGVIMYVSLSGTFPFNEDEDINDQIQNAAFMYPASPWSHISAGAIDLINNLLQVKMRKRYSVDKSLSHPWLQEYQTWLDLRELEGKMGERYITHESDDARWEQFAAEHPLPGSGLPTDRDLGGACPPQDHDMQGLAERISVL

[6] = biological target: Cyclin-dependent kinase 12 (Homo sapiens, UniProt Q9NYV4)
Cyclin-dependent kinase 12, sequence (Q9NYV4 whole entry): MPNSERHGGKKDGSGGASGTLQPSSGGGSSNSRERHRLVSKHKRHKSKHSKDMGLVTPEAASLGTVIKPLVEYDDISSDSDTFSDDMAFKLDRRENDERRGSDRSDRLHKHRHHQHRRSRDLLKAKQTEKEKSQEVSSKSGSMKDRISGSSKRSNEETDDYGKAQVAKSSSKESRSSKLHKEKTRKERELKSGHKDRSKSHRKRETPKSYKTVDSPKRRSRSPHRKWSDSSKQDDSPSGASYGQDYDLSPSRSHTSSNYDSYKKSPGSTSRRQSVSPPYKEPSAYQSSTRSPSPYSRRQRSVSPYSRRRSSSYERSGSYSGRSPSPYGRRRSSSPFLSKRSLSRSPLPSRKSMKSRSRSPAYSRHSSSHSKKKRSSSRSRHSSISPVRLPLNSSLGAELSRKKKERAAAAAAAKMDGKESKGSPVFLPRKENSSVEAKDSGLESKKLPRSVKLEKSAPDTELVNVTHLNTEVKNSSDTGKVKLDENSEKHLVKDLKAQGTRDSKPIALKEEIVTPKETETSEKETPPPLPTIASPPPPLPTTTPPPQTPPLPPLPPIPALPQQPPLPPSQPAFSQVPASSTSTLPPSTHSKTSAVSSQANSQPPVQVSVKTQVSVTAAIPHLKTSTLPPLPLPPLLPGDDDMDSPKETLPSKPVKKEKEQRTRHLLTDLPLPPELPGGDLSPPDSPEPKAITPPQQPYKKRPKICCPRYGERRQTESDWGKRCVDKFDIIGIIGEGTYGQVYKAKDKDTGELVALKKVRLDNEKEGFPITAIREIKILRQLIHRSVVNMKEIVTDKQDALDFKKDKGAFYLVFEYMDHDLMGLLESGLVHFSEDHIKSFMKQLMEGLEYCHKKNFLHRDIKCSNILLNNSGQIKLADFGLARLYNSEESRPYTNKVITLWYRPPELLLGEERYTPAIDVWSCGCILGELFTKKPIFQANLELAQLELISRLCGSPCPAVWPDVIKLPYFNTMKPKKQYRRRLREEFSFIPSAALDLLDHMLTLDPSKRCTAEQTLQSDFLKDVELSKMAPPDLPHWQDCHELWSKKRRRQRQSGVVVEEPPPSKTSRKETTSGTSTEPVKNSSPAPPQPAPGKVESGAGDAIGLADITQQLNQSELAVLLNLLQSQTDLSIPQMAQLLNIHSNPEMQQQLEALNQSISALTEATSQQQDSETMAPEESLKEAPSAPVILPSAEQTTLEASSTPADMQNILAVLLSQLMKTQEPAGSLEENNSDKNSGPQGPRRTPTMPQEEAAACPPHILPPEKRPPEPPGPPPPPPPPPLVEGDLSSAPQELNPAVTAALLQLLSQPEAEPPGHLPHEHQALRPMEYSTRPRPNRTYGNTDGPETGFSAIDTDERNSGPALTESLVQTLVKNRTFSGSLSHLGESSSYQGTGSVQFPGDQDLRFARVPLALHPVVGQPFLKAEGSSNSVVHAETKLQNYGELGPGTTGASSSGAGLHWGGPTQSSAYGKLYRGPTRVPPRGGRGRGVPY

[7] = biological target: T4, MAP kinase-activated protein kinase 5 (Homo sapiens, UniProt Q8IW41)
T4 sequence (Q8IW41 whole entry): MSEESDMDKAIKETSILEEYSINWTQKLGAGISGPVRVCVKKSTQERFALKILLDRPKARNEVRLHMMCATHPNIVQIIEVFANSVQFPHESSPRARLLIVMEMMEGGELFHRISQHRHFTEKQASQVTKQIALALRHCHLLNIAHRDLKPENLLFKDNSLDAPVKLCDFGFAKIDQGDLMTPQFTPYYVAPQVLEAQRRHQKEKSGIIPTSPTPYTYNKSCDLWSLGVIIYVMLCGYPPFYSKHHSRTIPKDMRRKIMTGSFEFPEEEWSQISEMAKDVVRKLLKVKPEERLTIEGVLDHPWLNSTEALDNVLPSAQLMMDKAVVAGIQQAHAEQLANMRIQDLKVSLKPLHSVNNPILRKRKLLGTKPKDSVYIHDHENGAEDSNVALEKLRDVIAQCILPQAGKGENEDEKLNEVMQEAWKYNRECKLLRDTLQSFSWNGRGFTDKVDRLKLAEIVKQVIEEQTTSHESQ

[8] = biological target: Serine/threonine-protein kinase/endoribonuclease IRE2 (Homo sapiens, UniProt Q76MJ5)
Serine/threonine-protein kinase/endoribonuclease IRE2, sequence (Q76MJ5 whole entry): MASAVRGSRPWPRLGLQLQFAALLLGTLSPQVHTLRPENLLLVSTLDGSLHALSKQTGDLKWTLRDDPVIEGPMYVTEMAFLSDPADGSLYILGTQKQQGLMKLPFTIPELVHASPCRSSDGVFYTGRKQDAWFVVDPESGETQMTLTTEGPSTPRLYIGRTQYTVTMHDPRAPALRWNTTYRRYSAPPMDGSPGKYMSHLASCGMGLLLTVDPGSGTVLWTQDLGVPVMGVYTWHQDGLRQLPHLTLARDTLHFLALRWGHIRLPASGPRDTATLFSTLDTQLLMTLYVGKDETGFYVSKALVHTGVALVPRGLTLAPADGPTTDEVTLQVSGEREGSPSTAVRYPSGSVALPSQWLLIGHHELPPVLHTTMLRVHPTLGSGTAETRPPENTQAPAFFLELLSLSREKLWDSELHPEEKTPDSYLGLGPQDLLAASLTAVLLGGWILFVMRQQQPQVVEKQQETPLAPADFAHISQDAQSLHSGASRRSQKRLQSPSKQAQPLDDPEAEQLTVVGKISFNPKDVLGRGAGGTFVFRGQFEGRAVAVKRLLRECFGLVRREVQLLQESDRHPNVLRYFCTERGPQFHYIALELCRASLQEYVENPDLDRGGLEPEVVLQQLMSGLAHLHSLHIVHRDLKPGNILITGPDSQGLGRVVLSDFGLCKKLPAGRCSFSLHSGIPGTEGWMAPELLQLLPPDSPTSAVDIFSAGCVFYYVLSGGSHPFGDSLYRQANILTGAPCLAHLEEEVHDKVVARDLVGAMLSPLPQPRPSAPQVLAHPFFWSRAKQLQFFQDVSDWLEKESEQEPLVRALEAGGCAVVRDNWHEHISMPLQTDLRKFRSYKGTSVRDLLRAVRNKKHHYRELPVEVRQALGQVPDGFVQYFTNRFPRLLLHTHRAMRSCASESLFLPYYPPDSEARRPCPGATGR
Also: in the data inactive means no Kd found up to 30 µM.

Ephrin type-A receptor 5, sequence (P54756 whole entry): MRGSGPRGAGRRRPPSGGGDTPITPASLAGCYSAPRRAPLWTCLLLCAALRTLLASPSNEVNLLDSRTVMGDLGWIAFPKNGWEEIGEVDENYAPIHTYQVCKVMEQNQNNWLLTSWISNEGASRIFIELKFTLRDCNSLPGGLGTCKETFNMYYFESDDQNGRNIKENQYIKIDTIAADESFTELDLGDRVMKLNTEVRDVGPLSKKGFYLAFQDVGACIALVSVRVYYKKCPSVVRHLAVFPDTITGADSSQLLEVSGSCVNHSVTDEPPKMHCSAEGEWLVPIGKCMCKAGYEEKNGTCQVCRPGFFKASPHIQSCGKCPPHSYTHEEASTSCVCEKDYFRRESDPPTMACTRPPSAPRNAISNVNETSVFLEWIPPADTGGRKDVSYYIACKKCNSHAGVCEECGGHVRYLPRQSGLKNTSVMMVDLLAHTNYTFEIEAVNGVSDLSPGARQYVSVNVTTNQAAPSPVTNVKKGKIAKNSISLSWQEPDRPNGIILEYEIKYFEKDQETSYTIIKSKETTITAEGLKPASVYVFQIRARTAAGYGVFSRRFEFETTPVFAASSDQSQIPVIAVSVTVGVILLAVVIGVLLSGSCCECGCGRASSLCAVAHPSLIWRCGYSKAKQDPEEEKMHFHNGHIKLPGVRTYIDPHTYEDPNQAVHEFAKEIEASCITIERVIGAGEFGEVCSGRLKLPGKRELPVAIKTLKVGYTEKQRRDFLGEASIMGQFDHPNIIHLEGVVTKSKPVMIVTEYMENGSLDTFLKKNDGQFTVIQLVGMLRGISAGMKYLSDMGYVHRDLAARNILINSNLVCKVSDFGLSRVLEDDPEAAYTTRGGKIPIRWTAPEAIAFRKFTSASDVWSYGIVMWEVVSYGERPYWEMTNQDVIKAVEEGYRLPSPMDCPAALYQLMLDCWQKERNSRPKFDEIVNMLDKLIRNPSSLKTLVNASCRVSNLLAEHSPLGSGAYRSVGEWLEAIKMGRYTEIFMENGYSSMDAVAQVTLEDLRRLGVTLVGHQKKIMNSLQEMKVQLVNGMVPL

Kd (Ephrin type-A receptor 5) | Kd (TGF-beta receptor type-1) | Kd [1] | Kd [2] | Kd [3] | Kd [4] | Kd [5] | Kd [6] | Kd [7] | Kd [8] | SMILES
> 30 µM (inactive) | > 30 µM (inactive) | > 30 µM (inactive) | > 30 µM (inactive) | > 30 µM (inactive) | > 30 µM (inactive) | > 30 µM (inactive) | > 30 µM (inactive) | > 30 µM (inactive) | > 30 µM (inactive) | Cn1cc(-c2ccc(F)c(C(F)(F)F)c2)nc1C1CCN(c2ncnc3[nH]ncc23)CC1 [LY-2584702]
> 30 µM (inactive) | > 30 µM (inactive) | > 30 µM (inactive) | > 30 µM (inactive) | > 30 µM (inactive) | > 30 µM (inactive) | > 30 µM (inactive) | > 30 µM (inactive) | > 30 µM (inactive) | > 30 µM (inactive) | CNC(=O)c1ccc(C)c(-n2c(C)cc(OCc3ccc(F)cc3F)c(Br)c2=O)c1 [PH-797804]
> 30 µM (inactive) | > 30 µM (inactive) | > 30 µM (inactive) | > 30 µM (inactive) | > 30 µM (inactive) | > 30 µM (inactive) | > 30 µM (inactive) | > 30 µM (inactive) | > 30 µM (inactive) | > 30 µM (inactive) | COc1ccc(-c2ccc3c(N4CCOC[C@@H]4C)nc(N4CCOC[C@@H]4C)nc3n2)cc1CO [AZD-8055]
> 30 µM (inactive) | 1.7 µM (active) | > 30 µM (inactive) | > 30 µM (inactive) | > 30 µM (inactive) | > 30 µM (inactive) | > 30 µM (inactive) | > 30 µM (inactive) | > 30 µM (inactive) | > 30 µM (inactive) | O=C(O)[C@]1(Cc2cccc(Nc3nccs3)n2)CC[C@@H](Oc2cccc(Cl)c2F)CC1 [MK-5108]
> 30 µM (inactive) | > 30 µM (inactive) | > 30 µM (inactive) | 0.354 µM (active) | > 30 µM (inactive) | > 30 µM (inactive) | > 30 µM (inactive) | > 30 µM (inactive) | > 30 µM (inactive) | > 30 µM (inactive) | COc1cc(CCc2cc(NC(=O)c3ccc(N4C[C@@H](C)N[C@@H](C)C4)cc3)n[nH]2)cc(OC)c1 [AZD-4547]

Further lines, the molecule ahead of its results:

SMILES | Kd (Ephrin type-A receptor 5) | Kd (TGF-beta receptor type-1) | Kd [1] | Kd [2] | Kd [3] | Kd [4] | Kd [5] | Kd [6] | Kd [7] | Kd [8]
CC[C@@H]1C(=O)N(C)c2cnc(Nc3ccc(C(=O)N[C@H]4CC[C@H](N5CCN(CC6CC6)CC5)CC4)cc3OC)nc2N1C(C)C [VOLASERTIB] | > 30 µM (inactive) | > 30 µM (inactive) | > 30 µM (inactive) | > 30 µM (inactive) | > 30 µM (inactive) | > 30 µM (inactive) | > 30 µM (inactive) | > 30 µM (inactive) | > 30 µM (inactive) | > 30 µM (inactive)
C[C@@H]1CN(Cc2ccc(F)cc2)[C@@H](C)CN1C(=O)c1cc2c(C(=O)C(=O)N(C)C)cn(C)c2cc1Cl [TALMAPIMOD] | > 30 µM (inactive) | > 30 µM (inactive) | > 30 µM (inactive) | > 30 µM (inactive) | > 30 µM (inactive) | > 30 µM (inactive) | > 30 µM (inactive) | > 30 µM (inactive) | > 30 µM (inactive) | > 30 µM (inactive)
CC(C)Nc1cc(-c2c[nH]c(C(=O)N[C@H](CO)c3cccc(Cl)c3)c2)c(Cl)cn1 [ULIXERTINIB] | > 30 µM (inactive) | > 30 µM (inactive) | > 30 µM (inactive) | > 30 µM (inactive) | > 30 µM (inactive) | > 30 µM (inactive) | 6.34 µM (active) | > 30 µM (inactive) | > 30 µM (inactive) | > 30 µM (inactive)
COC(=O)[C@@]1(O)C[C@H]2O[C@]1(C)n1c3ccccc3c3c4c(c5c6ccccc6n2c5c31)C(=O)NC4 [K-252A] | > 30 µM (inactive) | 2.18 µM (active) | 2.99 µM (active) | 0.452 µM (active) | > 30 µM (inactive) | 4.85 µM (active) | 0.03 µM (active) | > 30 µM (inactive) | > 30 µM (inactive) | 0.908 µM (active)
Cc1ccc(NC(=O)c2ccc(CN3CC[C@H](N(C)C)C3)c(C(F)(F)F)c2)cc1Nc1nccc(-c2cncnc2)n1 [BAFETINIB] | 0.345 µM | > 30 µM (inactive) | > 30 µM (inactive) | > 30 µM (inactive) | > 30 µM (inactive) | > 30 µM (inactive) | > 30 µM (inactive) | > 30 µM (inactive) | > 30 µM (inactive) | > 30 µM (inactive)
Cc1ccc(-n2nc(C(C)(C)C)cc2NC(=O)NCc2cc(F)ccc2Oc2ccc3c(cnn3CCO)c2)cc1 [PEXMETINIB] | > 30 µM (inactive) | > 30 µM (inactive) | > 30 µM (inactive) | > 30 µM (inactive) | > 30 µM (inactive) | > 30 µM (inactive) | > 30 µM (inactive) | > 30 µM (inactive) | > 30 µM (inactive) | > 30 µM (inactive)
CNC(=O)c1ccc(-c2cnc3ncc(Cc4ccc5ncccc5c4)n3n2)cc1F [CAPMATINIB] | > 30 µM (inactive) | > 30 µM (inactive) | > 30 µM (inactive) | > 30 µM (inactive) | > 30 µM (inactive) | > 30 µM (inactive) | > 30 µM (inactive) | > 30 µM (inactive) | > 30 µM (inactive) | > 30 µM (inactive)
